According to PubChem BioAssay (NCI):
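1) Cells in 96-well plates. 2) Compound, 48 h, 5 concentrations. 3) Linear interpolation between surrounding doses. 4) Unreached endpoint = highest concentration. GI50 = concentration required for 50% inhibition of growth. At the TGI there is no net growth.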

Key:
Test in all cases: growth of human tumour cells (NCI), 48 h
HCC-2998 colon = tested on: HCC-2998 colon
CAKI-1 renal = tested on: CAKI-1 renal
NCI-H23 lung = tested on: NCI-H23 lung
U251 CNS = tested on: U251 CNS
CCRF-CEM leukemia = tested on: CCRF-CEM leukemia
SK-MEL-28 melanoma = tested on: SK-MEL-28 melanoma
UO-31 renal = tested on: UO-31 renal
MDA-MB-231 breast = tested on: MDA-MB-231 breast
HT29 colon = tested on: HT29 colon
SK-OV-3 ovarian = tested on: SK-OV-3 ovarian
MDA-MB-468 breast = tested on: MDA-MB-468 breast
T-47D breast = tested on: T-47D breast
OVCAR-4 ovarian = tested on: OVCAR-4 ovarian
UACC-62 melanoma = tested on: UACC-62 melanoma
HOP-62 NSCLC = tested on: HOP-62 NSCLC
SR leukemia = tested on: SR leukemia
M14 melanoma = tested on: M14 melanoma
IGROV1 ovarian = tested on: IGROV1 ovarian
SF-539 CNS = tested on: SF-539 CNS
HCT-116 colon = tested on: HCT-116 colon
MDA-MB-435 = tested on: MDA-MB-435
NCI/ADR-RES ovarian = tested on: NCI/ADR-RES ovarian
SK-MEL-2 melanoma = tested on: SK-MEL-2 melanoma
HCT-15 colon = tested on: HCT-15 colon
SF-268 CNS = tested on: SF-268 CNS
DU-145 prostate = tested on: DU-145 prostate
UACC-257 melanoma = tested on: UACC-257 melanoma
SN12C renal = tested on: SN12C renal
NCI-H460 lung = tested on: NCI-H460 lung
786-0 renal = tested on: 786-0 renal

Question: `Cc1ccc(-c2ccc(SCC(=O)Nc3ccc(S(N)(=O)=O)cc3Br)nn2)cc1` was tested. Which TGI (HCC-2998 colon) did it give?
Answer: The TGI was 28.1 µM.

Question: What about the GI50 (CAKI-1 renal) of the same molecule?
Answer: Its GI50 is 12.3 µM.

Question: And the TGI (CAKI-1 renal)?
Answer: Its TGI is 28.5 µM.

Question: And the GI50 (NCI-H23 lung)?
Answer: Its GI50 is 9.73 µM.

Question: What about the TGI (NCI-H23 lung) of the same molecule?
Answer: Its TGI is 21.4 µM.

Question: What about the GI50 (U251 CNS) of the same molecule?
Answer: The GI50 was 6.17 µM.

Question: And the TGI (U251 CNS)?
Answer: The TGI was 24 µM.

Question: What about the GI50 (CCRF-CEM leukemia) of the same molecule?
Answer: Its GI50 is > 100 µM.

Question: And the TGI (CCRF-CEM leukemia)?
Answer: Its TGI is > 100 µM.

Question: And the GI50 (SK-MEL-28 melanoma)?
Answer: Its GI50 is 13.4 µM.

Question: What about the TGI (SK-MEL-28 melanoma) of the same molecule?
Answer: The TGI was 27 µM.

Question: And the GI50 (UO-31 renal)?
Answer: Its GI50 is 14.7 µM.

Question: And the TGI (UO-31 renal)?
Answer: The TGI was 28.6 µM.

Question: What about the GI50 (MDA-MB-231 breast) of the same molecule?
Answer: Its GI50 is 4.19 µM.

Question: What about the TGI (MDA-MB-231 breast) of the same molecule?
Answer: The TGI was 15.5 µM.

Question: What about the GI50 (HT29 colon) of the same molecule?
Answer: Its GI50 is 7.6 µM.

Question: What about the TGI (HT29 colon) of the same molecule?
Answer: Its TGI is 68.8 µM.

Question: What about the GI50 (SK-OV-3 ovarian) of the same molecule?
Answer: Its GI50 is 15.1 µM.

Question: What about the TGI (SK-OV-3 ovarian) of the same molecule?
Answer: Its TGI is 29.3 µM.

Question: And the GI50 (MDA-MB-468 breast)?
Answer: The GI50 was 15.3 µM.

Question: What about the TGI (MDA-MB-468 breast) of the same molecule?
Answer: Its TGI is 36.4 µM.

Question: What about the GI50 (T-47D breast) of the same molecule?
Answer: The GI50 was 10.6 µM.

Question: And the TGI (T-47D breast)?
Answer: Its TGI is 34.3 µM.

Question: What about the GI50 (OVCAR-4 ovarian) of the same molecule?
Answer: Its GI50 is 14.1 µM.

Question: What about the TGI (OVCAR-4 ovarian) of the same molecule?
Answer: The TGI was 35 µM.

Question: What about the GI50 (UACC-62 melanoma) of the same molecule?
Answer: The GI50 was 13.2 µM.

Question: What about the TGI (UACC-62 melanoma) of the same molecule?
Answer: Its TGI is 26.2 µM.

Question: What about the GI50 (HOP-62 NSCLC) of the same molecule?
Answer: Its GI50 is 6.99 µM.

Question: And the TGI (HOP-62 NSCLC)?
Answer: The TGI was 24.2 µM.

Question: What about the GI50 (SR leukemia) of the same molecule?
Answer: Its GI50 is 60.4 µM.

Question: And the TGI (SR leukemia)?
Answer: Its TGI is > 100 µM.

Question: What about the GI50 (M14 melanoma) of the same molecule?
Answer: Its GI50 is 30.5 µM.

Question: What about the TGI (M14 melanoma) of the same molecule?
Answer: The TGI was > 100 µM.

Question: What about the GI50 (IGROV1 ovarian) of the same molecule?
Answer: Its GI50 is 15.9 µM.

Question: And the TGI (IGROV1 ovarian)?
Answer: Its TGI is 31.3 µM.

Question: And the GI50 (SF-539 CNS)?
Answer: The GI50 was 10.4 µM.

Question: What about the TGI (SF-539 CNS) of the same molecule?
Answer: The TGI was 22.2 µM.

Question: And the GI50 (HCT-116 colon)?
Answer: The GI50 was 3.67 µM.

Question: What about the TGI (HCT-116 colon) of the same molecule?
Answer: The TGI was 17.2 µM.

Question: What about the GI50 (MDA-MB-435) of the same molecule?
Answer: Its GI50 is 25.4 µM.

Question: What about the TGI (MDA-MB-435) of the same molecule?
Answer: Its TGI is > 100 µM.

Question: And the GI50 (NCI/ADR-RES ovarian)?
Answer: The GI50 was 9.62 µM.

Question: What about the TGI (NCI/ADR-RES ovarian) of the same molecule?
Answer: The TGI was > 100 µM.

Question: And the GI50 (SK-MEL-2 melanoma)?
Answer: Its GI50 is 16.4 µM.

Question: What about the TGI (SK-MEL-2 melanoma) of the same molecule?
Answer: The TGI was 35.3 µM.

Question: What about the GI50 (HCT-15 colon) of the same molecule?
Answer: Its GI50 is 11.3 µM.

Question: What about the TGI (HCT-15 colon) of the same molecule?
Answer: The TGI was 23.4 µM.

Question: What about the GI50 (SF-268 CNS) of the same molecule?
Answer: The GI50 was 18.4 µM.

Question: And the TGI (SF-268 CNS)?
Answer: Its TGI is 48.9 µM.

Question: What about the GI50 (DU-145 prostate) of the same molecule?
Answer: Its GI50 is 13.3 µM.

Question: And the TGI (DU-145 prostate)?
Answer: The TGI was 32.1 µM.

Question: What about the GI50 (UACC-257 melanoma) of the same molecule?
Answer: Its GI50 is 22.7 µM.

Question: What about the TGI (UACC-257 melanoma) of the same molecule?
Answer: Its TGI is 64.9 µM.

Question: And the GI50 (SN12C renal)?
Answer: The GI50 was 23.8 µM.

Question: And the TGI (SN12C renal)?
Answer: The TGI was 60 µM.

Question: What about the GI50 (NCI-H460 lung) of the same molecule?
Answer: The GI50 was 10.3 µM.

Question: And the TGI (NCI-H460 lung)?
Answer: Its TGI is 29 µM.

Question: What about the GI50 (786-0 renal) of the same molecule?
Answer: Its GI50 is 16.4 µM.

Question: And the TGI (786-0 renal)?
Answer: The TGI was 47 µM.
